Results on three compounds are retold here after patent publication US10213428B2, “(4-((3R,4R)-3-methoxytetrahydro-pyran-4-ylamino)piperidin-1-yl)(5-methyl-6-(((2R,6S)-6-(p-tolyl)tetrahydro-2H-pyran-2-yl)methylamino)pyrimidin-4-yl)methanone citrate” (Centrexion Therapeutics Corporation, priority 2015, dated 2019).

Structures are written as SMILES. Where two headings read alike, the source gives them in different places.

Format in all cases: physicochemical
A short description of data set [1]: ThermoGravimetry (loss on drying). The note with it: TG. An excerpt:
Thermal gravimetry data were collected with a TG instrument from the Q-series of TA Instruments. This method measures weight changes in a material as a function of temperature under a controlled atmosphere.

Data set [2] is described as follows: X-ray powder diffraction: crystallinity and polymorphism. To be noted: for indications for polymorphism: several crystallization experiments. An excerpt: X-ray powder diagrams were generated using a STOE-STADI P-diffractometer in transmission mode fitted with a MYTHEN-detector and a Cu-anode as X-ray source with monochromatic CuKα1 radiation (λ=1.54056 Å, 40 kV, 40 mA).

Data set [3] in a line: Dynamic vapour sorption (sorption isotherms, water uptake). The note with it: for hygroscopic behavior: uptake of water: 25° C. An excerpt: Sorption isotherms were generated using an IGAsorp water sorption monitor from Hiden Isochema. […] For BR salt form only: Sorption isotherms were registered on a DVS-1 water sorption monitor from Surface Measurement Systems.

For `Br.CO[C@H]1COCC[C@H]1NC1CCN(C(=O)c2ncnc(NC[C@H]3CCC[C@@H](c4ccc(C)cc4)O3)c2C)CC1` [hydrobromide salt of compound I, (4-((3R,4R)-3-methoxytetrahydro-pyran-4-ylamino)piperidin-1-yl)(5-methyl-6-(((2R,6S)-6-(p-tolyl)tetrahydro-2H-pyran-2-yl)methylamino)pyrimidin-4-yl)methanone hydrobromide], the loss on drying in data set [1] was found to be 2.9%. For the same compound, the crystallinity result in data set [2] (hydrobromide) is “medium”; in data set [2] (listed as hydrobromide salt of compound of formula (I), hydrobromide), “medium crystallinity”. In addition, the indications for polymorphism result in data set [2] (listed as Hydrobromide Salt, hydrobromide) is “Yes”; in data set [2] (listed as hydrobromide, hydrobromide), “Different polymorphic modifications”. Besides, the “hygroscopic behavior: uptake of water” value in data set [3] (up to 80% r.h. (humidity range 10-80%), hydrobromide) is recorded as 4.5%; in data set [3] (up to 80% r.h. (humidity range 10-80%), listed as Hydrobromide Salt, hydrobromide), 4.5%; in data set [3] (up to 90% r.h.) it was 20%. For the same compound, the “hygroscopic behavior: deliquescence” value is “deli-” in data set [3] (up to 80% r.h., listed as Hydrobromide Salt, hydrobromide); “irreversibly deliquescent” in data set [3] (up to 80% r.h., listed as hydrobromide, hydrobromide); “deli-” in data set [3] (up to 90% r.h.).

The compound `CCS(=O)(=O)O.CO[C@H]1COCC[C@H]1NC1CCN(C(=O)c2ncnc(NC[C@H]3CCC[C@@H](c4ccc(C)cc4)O3)c2C)CC1` [esilate salt of compound I, (4-((3R,4R)-3-methoxytetrahydro-pyran-4-ylamino)piperidin-1-yl)(5-methyl-6-(((2R,6S)-6-(p-tolyl)tetrahydro-2H-pyran-2-yl)methylamino)pyrimidin-4-yl)methanone esilate] had a loss on drying in data set [1] of 2.4%. The crystallinity entry was “high” in data set [2] and “high crystallinity” in data set [2] (listed as esilate salt of compound of formula (I)). Moreover, the results for the indications for polymorphism result in data set [2] (listed as Esilate Salt) and in data set [2] (listed as esilate) were “no” and “only one polymorphic form”, respectively. Moreover, the “hygroscopic behavior: uptake of water” value in data set [3] (up to 80% r.h. (humidity range 10-80%)) is on record as 20%; in data set [3] (up to 80% r.h. (humidity range 10-80%), listed as Esilate Salt) it was 20% uptake; in data set [3] (up to 90% r.h.), 45% uptake. Moreover, the “hygroscopic behavior: deliquescence” value in data set [3] (up to 80% r.h., listed as Esilate Salt) is “deliquescent”; in data set [3] (up to 80% r.h., listed as esilate), “irreversibly deliquescent”; in data set [3] (up to 90% r.h.) it was “deliquescent”.

Turning to `CO[C@H]1COCC[C@H]1NC1CCN(C(=O)c2ncnc(NC[C@H]3CCC[C@@H](c4ccc(C)cc4)O3)c2C)CC1.CS(=O)(=O)O` [methanesulfonate salt of compound I, (4-((3R,4R)-3-methoxytetrahydro-pyran-4-ylamino)piperidin-1-yl)(5-methyl-6-(((2R,6S)-6-(p-tolyl)tetrahydro-2H-pyran-2-yl)methylamino)pyrimidin-4-yl)methanone methanesulfonate], the crystallinity entry is recorded as “medium crystallinity” in data set [2] (listed as methanesulfonate salt of compound of formula (I), methanesulfonate) and “Medium” in data set [2] (methanesulfonate). Moreover, the indications for polymorphism result in data set [2] (listed as Methanesulfonate Salt, methanesulfonate) was “No”; in data set [2] (listed as methanesulfonate, methanesulfonate), “only one polymorphic form”. The “hygroscopic behavior: deliquescence” value in data set [3] (up to 80% r.h.) is “irreversibly deliquescent”. Further, the “hygroscopic behavior: uptake of water” value in data set [3] (up to 80% r.h. (humidity range 10-80%), listed as Methanesulfonate Salt, methanesulfonate) is 30%; in data set [3] (up to 80% r.h. (humidity range 10-80%), methanesulfonate), 30%; in data set [3] (up to 90% r.h.), 45%.
